Assay type in all cases: in vivo
Assay [1] deals with Polygonum convolvulus. The experiment in a line: Post-emergence herbicidal action, POLCO. An outline of the steps:
(§1)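 Values are visual estimates of herbicidal action, from 0% (as untreated) to 100% (dead), made about 3 weeks after plants at one-leaf stage in sandy loam were sprayed with the formulated compound.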

In assay [2] the test system is Veronica persica. The experiment in a line: Pre-emergence herbicidal action, VERPE. Set-up: key to Herbicidal action against VERPE: % activity: 100 = plants have died, 0 = like control plants. Particulars: for herbicidal activity VERPE / herbicidal action VERPE: dosage 320 g/ha; for herbicidal activity VERPE: scored visually after 3 weeks vs untreated controls (100% = plants have died). An outline of the steps: (§2)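 Application took place on the soil surface immediately after sowing into sandy loam, using aqueous WP or EC preparations with 0.2% wetting agent. Visual percent scoring followed 3 weeks later, untreated pots serving as reference.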

Assay [3] relates to Abutilon theophrasti. The experiment in a line: Pre-emergence herbicidal action, ABUTH. Set-up: key to Herbicidal action against ABUTH: % activity: 100 = plants have died, 0 = like control plants. The following applies: for herbicidal activity ABUTH / herbicidal action ABUTH: dosage 320 g/ha; for herbicidal activity ABUTH: scored visually after 3 weeks vs untreated controls (100% = plants have died). In outline: as §2

Assay [4] concerns Amaranthus retroflexus. In words: Post-emergence herbicidal action, AMARE. Set-up: key: % herbicidal action vs untreated; 100 = plants died, 0 = like control. In outline: as §1
Assay [5] has as its system Stellaria media. In words: Post-emergence herbicidal action, STEME. More on the design: key: % herbicidal action vs untreated; 100 = plants died, 0 = like control. An outline of the steps: as §1
Assay [6] deals with Viola tricolor. The experiment in a line: Post-emergence herbicidal action, VIOTR. Set-up: key: % herbicidal action vs untreated; 100 = plants died, 0 = like control. In outline: as §1
Where [7] appears, read: comparative experiment, post-emergence, 20 g of a.i./ha.
Setting [8] is: comparative experiment, 80 g of a.i./ha.

With `CCn1nnnc1NC(=O)c1ccc(C(F)(F)F)c(C[S+]([O-])CC)c1Br` (stereo not drawn) [Example 2-384], the “herbicidal action POLCO” value in assay [1] (post-emergence, dosage 80 g/ha) was determined as 80%. In assay [2], the “herbicidal activity VERPE” value is given as 100%. The “herbicidal activity ABUTH” value in assay [3] turned out to be 100%. The “herbicidal action AMARE” value in assay [4] (post-emergence, dosage 80 g/ha) stood at 90%. Moreover, the “herbicidal action STEME” value in assay [5] (post-emergence, dosage 80 g/ha) is listed as 100%. Further, in assay [6] (post-emergence, dosage 80 g/ha), the “herbicidal action VIOTR” value is 100%.

Consider `CCn1nnnc1NC(=O)c1ccc(C(F)(F)F)c(CS(=O)(=O)CC)c1Br` [Example 2-385], for which, in assay [1] (post-emergence, dosage 80 g/ha), the “herbicidal action POLCO” value came out at 90%. For the same compound, the “herbicidal activity VERPE” value in assay [2] is recorded as 100%. Further, the “herbicidal activity ABUTH” value in assay [3] is listed as 100%. For the same compound, the “herbicidal action AMARE” value in assay [4] (post-emergence, dosage 80 g/ha) stood at 90%. For the same compound, the “herbicidal action STEME” value in assay [5] (post-emergence, dosage 80 g/ha) is 100%. Further, the “herbicidal action VIOTR” value in assay [6] (post-emergence, dosage 80 g/ha) is 100%.

Regarding `CCn1nnnc1NC(=O)c1ccc(Cl)c(CSC)c1Cl` [Example 2-559], the “herbicidal action POLCO” value in assay [1] (Dosage 80 g/ha) amounted to 80. Further, the “herbicidal action VERPE” value in assay [2] amounted to 100%. The “herbicidal action ABUTH” value in assay [3] came out at 100%. Besides, the “herbicidal action AMARE” value in assay [4] (Dosage 80 g/ha) worked out at 100. In addition, the “herbicidal action STEME” value in assay [5] (Dosage 80 g/ha) was found to be 100. Further, the “herbicidal action VIOTR” value in assay [6] (Dosage 80 g/ha) turned out to be 100.

With `CCCn1nnnc1NC(=O)c1ccc(C(F)(F)F)c(CSC)c1SC` [Example 3-161], the “herbicidal action POLCO” value in assay [1] (Dosage 80 g/ha) worked out at 80. Further, the “herbicidal action VERPE” value in assay [2] is given as 100%. In assay [3], the “herbicidal action ABUTH” value was 100%. In addition, the “herbicidal action AMARE” value in assay [4] (Dosage 80 g/ha) is reported as 100. For the same compound, the “herbicidal action STEME” value in assay [5] (Dosage 80 g/ha) stood at 100. In addition, in assay [6] (Dosage 80 g/ha), the “herbicidal action VIOTR” value was found to be 100.

For the compound `CCCn1nnnc1NC(=O)c1ccc(C(F)(F)F)c(C[S+](C)[O-])c1SC` (stereo not drawn) [Example 3-162], the “herbicidal action POLCO” value in assay [1] (post-emergence, dosage 80 g/ha) turned out to be 100%. Further, in assay [2], the “herbicidal activity VERPE” value was found to be 100%. For the same compound, the “herbicidal activity ABUTH” value in assay [3] is given as 100%. Besides, the “herbicidal action AMARE” value in assay [4] (post-emergence, dosage 80 g/ha) came to 100%. In assay [5] (post-emergence, dosage 80 g/ha), the “herbicidal action STEME” value is given as 100%. In assay [6] (post-emergence, dosage 80 g/ha), the “herbicidal action VIOTR” value is on record as 100%.

On to `CCCn1nnnc1NC(=O)c1ccc(C(F)(F)F)c(CS(C)(=O)=O)c1SC` [Example 3-163], for which, in assay [1] (Dosage 80 g/ha), the “herbicidal action POLCO” value came to 90. In addition, the “herbicidal activity VERPE” value in assay [2] amounted to 100%. Besides, the “herbicidal activity ABUTH” value in assay [3] is given as 100%. In addition, the “herbicidal action AMARE” value in assay [4] (Dosage 80 g/ha) is on record as 90. Further, the “herbicidal action STEME” value in assay [5] (Dosage 80 g/ha) is listed as 100. Further, the “herbicidal action VIOTR” value in assay [6] (Dosage 80 g/ha) is reported as 100.

`CCCn1nnnc1NC(=O)c1ccc(C(F)F)c(CSC)c1SC` [Example 3-170]: in assay [1] (Dosage 80 g/ha), the “herbicidal action POLCO” value was found to be 90. In addition, the “herbicidal activity VERPE” value in assay [2] was determined as 100%. For the same compound, the “herbicidal activity ABUTH” value in assay [3] is listed as 100%. In assay [4] (Dosage 80 g/ha), the “herbicidal action AMARE” value is recorded as 100. In assay [5] (Dosage 80 g/ha), the “herbicidal action STEME” value is recorded as 100. In addition, the “herbicidal action VIOTR” value in assay [6] (Dosage 80 g/ha) is recorded as 100.

As to `CCCn1nnnc1NC(=O)c1ccc(C(F)F)c(C[S+](C)[O-])c1SC` (stereo not drawn) [Example 3-171], in assay [1] (Dosage 80 g/ha), the “herbicidal action POLCO” value is listed as 90. In assay [2], the “herbicidal activity VERPE” value was determined as 100%. Moreover, the “herbicidal activity ABUTH” value in assay [3] is on record as 100%. Also, the “herbicidal action AMARE” value in assay [4] (Dosage 80 g/ha) was 100. Moreover, the “herbicidal action STEME” value in assay [5] (Dosage 80 g/ha) is 100. Further, in assay [6] (Dosage 80 g/ha), the “herbicidal action VIOTR” value was determined as 100.

Turning to `CCCn1nnnc1NC(=O)c1ccc(C(F)F)c(CS(C)(=O)=O)c1SC` [Example 3-172], the “herbicidal action POLCO” value in assay [1] (Dosage 80 g/ha) is 80. Moreover, the “herbicidal activity VERPE” value in assay [2] was determined as 100%. Also, in assay [3], the “herbicidal activity ABUTH” value was 100%. Further, in assay [4] (Dosage 80 g/ha), the “herbicidal action AMARE” value was determined as 100. For the same compound, in assay [5] (Dosage 80 g/ha), the “herbicidal action STEME” value is reported as 100. For the same compound, the “herbicidal action VIOTR” value in assay [6] (Dosage 80 g/ha) is listed as 90.

In the case of `CCCn1nnnc1NC(=O)c1ccc(C(F)(F)F)c(CS(C)(=O)=O)c1Cl` [Example 3-298], the “herbicidal action POLCO” value in assay [1] (Dosage 80 g/ha) is 90. In assay [2], the “herbicidal activity VERPE” value turned out to be 100%. Besides, the “herbicidal activity ABUTH” value in assay [3] was determined as 100%. In addition, the “herbicidal action AMARE” value in assay [4] (Dosage 80 g/ha) turned out to be 100. The “herbicidal action STEME” value in assay [5] (Dosage 80 g/ha) was 100. For the same compound, the “herbicidal action VIOTR” value in assay [6] (Dosage 80 g/ha) stood at 100.

Regarding `CCCn1nnnc1NC(=O)c1ccc(C(F)(F)F)c(CSCC(F)(F)F)c1Cl` [Example 3-311], the “herbicidal action POLCO” value in assay [1] (Dosage 80 g/ha) was 80. Also, the “herbicidal action VERPE” value in assay [2] amounted to 100%. Moreover, in assay [3], the “herbicidal action ABUTH” value was 100%. For the same compound, the “herbicidal action AMARE” value in assay [4] (Dosage 80 g/ha) is on record as 100. Further, the “herbicidal action STEME” value in assay [5] (Dosage 80 g/ha) amounted to 100. The “herbicidal action VIOTR” value in assay [6] (Dosage 80 g/ha) is 90.

In the case of `CCCn1nnnc1NC(=O)c1ccc(C(F)(F)F)c(CSCC2CC2)c1Cl` [Example 3-314], in assay [1] (post-emergence, dosage 80 g/ha), the “herbicidal action POLCO” value stood at 100%. Besides, the “herbicidal activity VERPE” value in assay [2] amounted to 100%. The “herbicidal activity ABUTH” value in assay [3] worked out at 100%. Also, the “herbicidal action AMARE” value in assay [4] (post-emergence, dosage 80 g/ha) is recorded as 100%. Further, the “herbicidal action STEME” value in assay [5] (post-emergence, dosage 80 g/ha) amounted to 100%. Moreover, the “herbicidal action VIOTR” value in assay [6] (post-emergence, dosage 80 g/ha) stood at 100%.

For `CCCn1nnnc1NC(=O)c1ccc(C(F)F)c(CSCC)c1Cl` [Example 3-323], the “herbicidal action POLCO” value in assay [1] (Dosage 80 g/ha) is on record as 80. In assay [2], the “herbicidal activity VERPE” value came to 100%. The “herbicidal activity ABUTH” value in assay [3] came to 100%. In assay [4] (Dosage 80 g/ha), the “herbicidal action AMARE” value came to 90. In addition, in assay [5] (Dosage 80 g/ha), the “herbicidal action STEME” value is on record as 100. Moreover, the “herbicidal action VIOTR” value in assay [6] (Dosage 80 g/ha) is 90.

For `CCCn1nnnc1NC(=O)c1ccc(I)c(C[S+](C)[O-])c1Cl` (stereo not drawn) [Example 3-363], in assay [1] (Dosage 80 g/ha), the “herbicidal action POLCO” value came to 90. Also, the “herbicidal action VERPE” value in assay [2] is given as 90%. Further, the “herbicidal action ABUTH” value in assay [3] turned out to be 100%. For the same compound, the “herbicidal action AMARE” value in assay [4] (Dosage 80 g/ha) is listed as 100. Also, the “herbicidal action STEME” value in assay [5] (Dosage 80 g/ha) is 100. The “herbicidal action VIOTR” value in assay [6] (Dosage 80 g/ha) is on record as 100.

With `CCCn1nnnc1NC(=O)c1ccc(C(F)(F)F)c(CS(C)(=O)=O)c1Br` [Example 3-382], the “herbicidal action POLCO” value in assay [1] (Dosage 80 g/ha) stood at 80. In assay [2], the “herbicidal action VERPE” value came out at 100%. Also, the “herbicidal action ABUTH” value in assay [3] came to 100%. For the same compound, the “herbicidal action AMARE” value in assay [4] (Dosage 80 g/ha) came out at 100. In addition, in assay [5] (Dosage 80 g/ha), the “herbicidal action STEME” value is given as 100. Further, the “herbicidal action VIOTR” value in assay [6] (Dosage 80 g/ha) was 90.

For `CCCn1nnnc1NC(=O)c1ccc(C(F)(F)F)c(C[S+]([O-])CC)c1Br` (stereo not drawn) [Example 3-384], the “herbicidal action POLCO” value in assay [1] (Dosage 80 g/ha) turned out to be 90. Besides, the “herbicidal activity VERPE” value in assay [2] was 100%. The “herbicidal activity ABUTH” value in assay [3] came to 100%. Besides, the “herbicidal action AMARE” value in assay [4] (Dosage 80 g/ha) is 90. In addition, the “herbicidal action STEME” value in assay [5] (Dosage 80 g/ha) worked out at 100. Further, in assay [6] (Dosage 80 g/ha), the “herbicidal action VIOTR” value is reported as 100.

Turning to `CCS(=O)(=O)c1c(C(F)(F)F)ccc(C(=O)Nc2nnnn2C)c1Br` [Example V-13, 2-bromo-3-(ethylsulfonyl)-N-(1-methyl-1-1H-tetrazol-5-yl)-4-(trifluoromethyl)benzamide, reference compound], the “Herbicidal action against POLCO” value in assay [1] (setting [7]) came to 0. Besides, in assay [2] (setting [8]), the “Herbicidal action against VERPE” value is on record as 0. For the same compound, the “Herbicidal action against ABUTH” value in assay [3] (setting [8]) was determined as 0. Besides, in assay [4] (setting [7]), the “Herbicidal action against AMARE” value amounted to 0. Moreover, the “Herbicidal action against STEME” value in assay [5] (setting [7]) is recorded as 0. Also, in assay [6] (setting [7]), the “Herbicidal action against VIOTR” value is 0.

The values above are taken from US12492173B2, “Herbicidal substituted N-tetrazolyl aryl carboxamides” (Bayer Aktiengesellschaft, priority 2019, dated 2025).
